Source: the supplement of paper PMC11451515

Legend:
Conditions in all cases: 48 h
P12-Ichikawa [1] = experiment: AUC of viability dose-response curve (% viability x log10 dose units); higher = less sensitive
Procedure, shortened: (§1)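 Leukemia cells adapted to each medium were seeded in 1536-well plates (500 or 1000 cells/well) and given library compounds in DMSO for 48 h at 37°C. The 11 threefold doses spanned 47 μM to 0.79 nM, and CellTiter-Glo One luminescence was normalised per plate to DMSO and cell-free wells before four-parameter log-logistic fitting on log10 dose. Area under the curve was integrated with the trapezoidal rule, scaling curves above full viability and removing curves that failed quality control.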

SEM cells [2] = experiment: as above
Procedure, shortened: as §1

NOMO1 [3] = experiment: as above
Procedure, shortened: as §1

P12-Ichikawa [4] = experiment: cell viability relative to DMSO control; higher = less cytotoxic
Procedure, shortened: (§2)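 NOMO1 or SEM (500 cells/well) or P12-Ichikawa (1000 cells/well) leukemia cells were adapted for at least four passages in each medium. They were seeded in 1536-well plates (5 μl) and pin-dosed with library compounds in DMSO over an 11-point threefold series, 47 μM to 0.79 nM. CellTiter-Glo One luminescence was read after 48 h at 37°C. Viability is the per-plate percentage relative to DMSO wells, with cell-free wells as background.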

SEM cells [5] = experiment: as above
Procedure, shortened: as §2

NOMO1 [6] = experiment: as above
Procedure, shortened: as §2

COc1ccc([C@@H]2CNC(=O)C2)cc1OC1CCCC1
AUC of viability dose-response curve
Conditions	NOMO1 [3]	P12-Ichikawa [1]	SEM cells [2]
HPLM + 10% dialyzed FBS	452	466	454
RPMI 5 mM glucose + 10% FBS	467	456	458
RPMI 5 mM glucose + 10% dialyzed FBS	468	458	459

cell viability [%]
Conditions	NOMO1 [6]	P12-Ichikawa [4]	SEM cells [5]
HPLM + 10% dialyzed FBS, 0.000781 µM	106	103	83.1
HPLM + 10% dialyzed FBS, 0.00234 µM	108	107	90.7
HPLM + 10% dialyzed FBS, 0.00702 µM	108	104	93.9
HPLM + 10% dialyzed FBS, 0.0211 µM	111	110	102
HPLM + 10% dialyzed FBS, 0.0632 µM	117	109	103
HPLM + 10% dialyzed FBS, 0.19 µM	114	111	103
HPLM + 10% dialyzed FBS, 0.569 µM	136	113	96.2
HPLM + 10% dialyzed FBS, 1.71 µM	114	109	114
HPLM + 10% dialyzed FBS, 5.12 µM	117	117	114
HPLM + 10% dialyzed FBS, 15.4 µM	118	114	111
HPLM + 10% dialyzed FBS, 46.1 µM	116	109	93.2
RPMI 5 mM glucose + 10% FBS, 0.000781 µM	112	101	76.9
RPMI 5 mM glucose + 10% FBS, 0.00234 µM	111	104	101
RPMI 5 mM glucose + 10% FBS, 0.00702 µM	106	110	92.3
RPMI 5 mM glucose + 10% FBS, 0.0211 µM	96.7	99.8	93.7
RPMI 5 mM glucose + 10% FBS, 0.0632 µM	114	97.1	100
RPMI 5 mM glucose + 10% FBS, 0.19 µM	107	113	98.6
RPMI 5 mM glucose + 10% FBS, 0.569 µM	104	117	92
RPMI 5 mM glucose + 10% FBS, 1.71 µM	112	105	95.5
RPMI 5 mM glucose + 10% FBS, 5.12 µM	99.7	117	103
RPMI 5 mM glucose + 10% FBS, 15.4 µM	105	118	95.6
RPMI 5 mM glucose + 10% FBS, 46.1 µM	107	108	98
RPMI 5 mM glucose + 10% dialyzed FBS, 0.000781 µM	92.6	99.1	97.1
RPMI 5 mM glucose + 10% dialyzed FBS, 0.00234 µM	101	106	94.3
RPMI 5 mM glucose + 10% dialyzed FBS, 0.00702 µM	119	113	97.9
RPMI 5 mM glucose + 10% dialyzed FBS, 0.0211 µM	105	107	70.6
RPMI 5 mM glucose + 10% dialyzed FBS, 0.0632 µM	114	118	97.4
RPMI 5 mM glucose + 10% dialyzed FBS, 0.19 µM	115	110	103
RPMI 5 mM glucose + 10% dialyzed FBS, 0.569 µM	105	114	104
RPMI 5 mM glucose + 10% dialyzed FBS, 1.71 µM	115	103	106
RPMI 5 mM glucose + 10% dialyzed FBS, 5.12 µM	112	113	99.6
RPMI 5 mM glucose + 10% dialyzed FBS, 15.4 µM	105	111	97.6
RPMI 5 mM glucose + 10% dialyzed FBS, 46.1 µM	119	118	90.9

CCN1CCN(Cc2ccc(-c3cc4c(N[C@H](C)c5ccccc5)ncnc4[nH]3)cc2)CC1
AUC of viability dose-response curve
Conditions	NOMO1 [3]	P12-Ichikawa [1]	SEM cells [2]
HPLM + 10% dialyzed FBS	439	448	384
RPMI 5 mM glucose + 10% FBS	460	463	375
RPMI 5 mM glucose + 10% dialyzed FBS	457	461	388

SEM cells [5], HPLM + 10% dialyzed FBS
Conditions	cell viability [%]
0.000781 µM	130
0.00234 µM	124
0.00702 µM	125
0.0211 µM	132
0.0632 µM	116
0.19 µM	116
0.569 µM	109
1.71 µM	98.5
5.12 µM	74.7
15.4 µM	51.1
46.1 µM	8.14

Cl.O[C@@H](CNC[C@H](O)[C@H]1CCc2cc(F)ccc2O1)[C@@H]1CCc2cc(F)ccc2O1
AUC of viability dose-response curve
Conditions	NOMO1 [3]	P12-Ichikawa [1]	SEM cells [2]
HPLM + 10% dialyzed FBS	439	465	450
RPMI 5 mM glucose + 10% FBS	446	441	444
RPMI 5 mM glucose + 10% dialyzed FBS	415	448	455

C[C@H]([C@H]1C\C(=C(CO)/C(=O)O1)C)[C@H]2CC[C@H]3[C@@H]4C[C@H]5O[C@]56[C@@H](O)\C=C/C(=O)[C@]6(C)[C@H]4CC[C@]23C
AUC of viability dose-response curve
Conditions	NOMO1 [3]	P12-Ichikawa [1]	SEM cells [2]
HPLM + 10% dialyzed FBS	271	263	259
RPMI 5 mM glucose + 10% FBS	283	258	253
RPMI 5 mM glucose + 10% dialyzed FBS	286	261	260

Conditions	cell viability [%]
NOMO1 [6], RPMI 5 mM glucose + 10% FBS, 0.000781 µM	133
NOMO1 [6], RPMI 5 mM glucose + 10% FBS, 0.00234 µM	123
NOMO1 [6], RPMI 5 mM glucose + 10% FBS, 0.00702 µM	122
NOMO1 [6], RPMI 5 mM glucose + 10% FBS, 0.0211 µM	128
NOMO1 [6], RPMI 5 mM glucose + 10% FBS, 0.0632 µM	119
NOMO1 [6], RPMI 5 mM glucose + 10% FBS, 0.19 µM	115
NOMO1 [6], RPMI 5 mM glucose + 10% FBS, 0.569 µM	28.6
NOMO1 [6], RPMI 5 mM glucose + 10% FBS, 1.71 µM	20.5
NOMO1 [6], RPMI 5 mM glucose + 10% FBS, 5.12 µM	9.85
NOMO1 [6], RPMI 5 mM glucose + 10% FBS, 15.4 µM	6.35
NOMO1 [6], RPMI 5 mM glucose + 10% FBS, 46.1 µM	3.75
P12-Ichikawa [4], HPLM + 10% dialyzed FBS, 0.000781 µM	126
P12-Ichikawa [4], HPLM + 10% dialyzed FBS, 0.00234 µM	124
P12-Ichikawa [4], HPLM + 10% dialyzed FBS, 0.00702 µM	123
P12-Ichikawa [4], HPLM + 10% dialyzed FBS, 0.0211 µM	129
P12-Ichikawa [4], HPLM + 10% dialyzed FBS, 0.0632 µM	121
P12-Ichikawa [4], HPLM + 10% dialyzed FBS, 0.19 µM	100
P12-Ichikawa [4], HPLM + 10% dialyzed FBS, 0.569 µM	11.3
P12-Ichikawa [4], HPLM + 10% dialyzed FBS, 1.71 µM	7.84
P12-Ichikawa [4], HPLM + 10% dialyzed FBS, 5.12 µM	5.43
P12-Ichikawa [4], HPLM + 10% dialyzed FBS, 15.4 µM	3.44
P12-Ichikawa [4], HPLM + 10% dialyzed FBS, 46.1 µM	1.95

C[C@@H]1O[C@@H](O[C@H]\2CC[C@]\3(C)[C@@H]4CC[C@]5(C)[C@@H](CC[C@@]5(O)[C@H]4CCC3=C2)C/6=C/OC(=O)/C=C6)[C@H](O)[C@H](O)[C@@H]1O
AUC of viability dose-response curve
Conditions	NOMO1 [3]	P12-Ichikawa [1]	SEM cells [2]
HPLM + 10% dialyzed FBS	187	181	173
RPMI 5 mM glucose + 10% FBS	214	197	193
RPMI 5 mM glucose + 10% dialyzed FBS	193	173	186

SEM cells [5], HPLM + 10% dialyzed FBS
Conditions	cell viability [%]
0.000781 µM	124
0.00234 µM	121
0.00702 µM	109
0.0211 µM	79.3
0.0632 µM	11.6
0.19 µM	12.5
0.569 µM	9.21
1.71 µM	8.61
5.12 µM	8.87
15.4 µM	7.79
46.1 µM	4.4

COC(=O)C/1=C/O[C@@H](O)[C@H]\2[C@@H]1C\C=C2CO
AUC of viability dose-response curve
Conditions	NOMO1 [3]	P12-Ichikawa [1]	SEM cells [2]
HPLM + 10% dialyzed FBS	472	469	465
RPMI 5 mM glucose + 10% FBS	461	466	462
RPMI 5 mM glucose + 10% dialyzed FBS	467	466	454

SEM cells [5], HPLM + 10% dialyzed FBS
Conditions	cell viability [%]
0.000781 µM	98.6
0.00234 µM	116
0.00702 µM	101
0.0211 µM	114
0.0632 µM	138
0.19 µM	114
0.569 µM	126
1.71 µM	112
5.12 µM	112
15.4 µM	104
46.1 µM	76.9

CN1CCN(c2cccc(Nc3nc4c(-c5ccc([S+](C)(=O)[O-])cc5)cccn4n3)c2)CC1
AUC of viability dose-response curve
Conditions	NOMO1 [3]	P12-Ichikawa [1]	SEM cells [2]
HPLM + 10% dialyzed FBS	438	453	379
RPMI 5 mM glucose + 10% FBS	449	427	375
RPMI 5 mM glucose + 10% dialyzed FBS	450	435	372

O=C(NCc1ccccc1)[C@H](Cc1ccccc1)NC(=O)[C@H]1O[C@@H]1C(=O)NCCc1ccc(O)cc1
AUC of viability dose-response curve
Conditions	NOMO1 [3]	P12-Ichikawa [1]	SEM cells [2]
HPLM + 10% dialyzed FBS	431	468	464
RPMI 5 mM glucose + 10% FBS	459	461	463
RPMI 5 mM glucose + 10% dialyzed FBS	425	463	453

CC1(C)S[C@H]2[C@H](NC(=O)[C@@H](N)C3=CC=C(O)C=C3)C(=O)[N@]2[C@H]1C(O)=O
AUC of viability dose-response curve
Conditions	NOMO1 [3]	P12-Ichikawa [1]	SEM cells [2]
HPLM + 10% dialyzed FBS	383	394	456
RPMI 5 mM glucose + 10% FBS	394	394	441
RPMI 5 mM glucose + 10% dialyzed FBS	393	383	461
